According to ChEMBL document CHEMBL1201862, “PubChem BioAssay data set” (2004):
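Five concentrations, 48 hours, 96-well plates. At the GI50, growth is halved.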 Activity calls are given as the source filed them. No stated cut-off is given here; in the data, active = GI50 up to about 1.1 µM and inactive = higher.

Key:
Experiment in all cases: NCI anticancer screen, dose series, 48 h
CAKI-1 = tested on: CAKI-1
UO-31 = tested on: UO-31
SNB-19 = tested on: SNB-19
HOP-92 = tested on: HOP-92
SF-268 = tested on: SF-268
HCC 2998 = tested on: HCC 2998
OVCAR-4 = tested on: OVCAR-4
DU-145 = tested on: DU-145
SNB-75 = tested on: SNB-75
MDA-N = tested on: MDA-N
SF-295 = tested on: SF-295
SK-OV-3 = tested on: SK-OV-3
Malme-3M = tested on: Malme-3M
BT-549 = tested on: BT-549
UACC-257 = tested on: UACC-257
Hs-578T = tested on: Hs-578T
MOLT-4 = tested on: MOLT-4
NCI-H522 = tested on: NCI-H522
KM12 = tested on: KM12
SK-MEL-28 = tested on: SK-MEL-28
A498 = tested on: A498
OVCAR-5 = tested on: OVCAR-5
EKVX = tested on: EKVX
SK-MEL-5 = tested on: SK-MEL-5
SW-620 = tested on: SW-620
MDA-MB-435 = tested on: MDA-MB-435
UACC-62 = tested on: UACC-62
SK-MEL-2 = tested on: SK-MEL-2
OVCAR-3 = tested on: OVCAR-3
PC-3 = tested on: PC-3
CCRF-CEM = tested on: CCRF-CEM
MDA-MB-231 = tested on: MDA-MB-231
A549 = tested on: A549
HOP-62 = tested on: HOP-62
U-251 = tested on: U-251
SN12C = tested on: SN12C
HCT-116 = tested on: HCT-116
NCI-H460 = tested on: NCI-H460
NCI-H23 = tested on: NCI-H23
TK-10 = tested on: TK-10
RPMI-8226 = tested on: RPMI-8226
HCT-15 = tested on: HCT-15
HT-29 = tested on: HT-29
IGROV-1 = tested on: IGROV-1
COLO 205 = tested on: COLO 205
M14 = tested on: M14
SR = tested on: SR
K562 = tested on: K562
T47D = tested on: T47D
NCI/ADR-RES = tested on: NCI/ADR-RES
SF-539 = tested on: SF-539
MCF7 = tested on: MCF7
HL-60 = tested on: HL-60
RXF 393 = tested on: RXF 393
ACHN = tested on: ACHN
LOX IMVI = tested on: LOX IMVI
OVCAR-8 = tested on: OVCAR-8
NCI-H226 = tested on: NCI-H226
786-0 = tested on: 786-0

Compound: CCOC(=O)C(Cc1c(-c2[nH]c3ccccc3c2CC(NC(=O)CNC(C)=O)C(=O)OCC)[nH]c2ccccc12)NC(=O)CNC(C)=O (stereo unspecified)
- GI50 (CAKI-1): > 100000 nM (inactive)
- GI50 (UO-31): 77400 nM (inactive)
- GI50 (SNB-19): > 100000 nM (inactive)
- GI50 (HOP-92): 26300 nM (inactive)
- GI50 (SF-268): 45500 nM (inactive)
- GI50 (HCC 2998): 23100 nM (inactive)
- GI50 (OVCAR-4): > 100000 nM (inactive)
- GI50 (DU-145): > 100000 nM (inactive)
- GI50 (SNB-75): 22100 nM (inactive)
- GI50 (MDA-N): > 100000 nM (inactive)
- GI50 (SF-295): > 100000 nM (inactive)
- GI50 (SK-OV-3): > 100000 nM (inactive)
- GI50 (Malme-3M): 20000 nM (inactive)
- GI50 (BT-549): > 100000 nM (inactive)
- GI50 (UACC-257): 27400 nM (inactive)
- GI50 (Hs-578T): 32600 nM (inactive)
- GI50 (MOLT-4): 53200 nM (inactive)
- GI50 (NCI-H522): 27900 nM (inactive)
- GI50 (KM12): > 100000 nM (inactive)
- GI50 (SK-MEL-28): 45400 nM (inactive)
- GI50 (A498): 65000 nM (inactive)
- GI50 (OVCAR-5): > 100000 nM (inactive)
- GI50 (EKVX): > 100000 nM (inactive)
- GI50 (SK-MEL-5): 29900 nM (inactive)
- GI50 (SW-620): > 100000 nM (inactive)
- GI50 (MDA-MB-435): > 100000 nM (inactive)
- GI50 (UACC-62): 74300 nM (inactive)
- GI50 (SK-MEL-2): 18600 nM (inactive)
- GI50 (OVCAR-3): 42300 nM (inactive)
- GI50 (PC-3): > 100000 nM (inactive)
- GI50 (CCRF-CEM): > 100000 nM (inactive)
- GI50 (MDA-MB-231): 16500 nM (inactive)
- GI50 (A549): > 100000 nM (inactive)
- GI50 (HOP-62): > 100000 nM (inactive)
- GI50 (U-251): > 100000 nM (inactive)
- GI50 (SN12C): 56000 nM (inactive)
- GI50 (HCT-116): > 100000 nM (inactive)
- GI50 (NCI-H460): > 100000 nM (inactive)
- GI50 (NCI-H23): > 100000 nM (inactive)
- GI50 (TK-10): > 100000 nM (inactive)
- GI50 (RPMI-8226): > 100000 nM (inactive)
- GI50 (HCT-15): > 100000 nM
- GI50 (HT-29): > 100000 nM (inactive)
- GI50 (IGROV-1): > 100000 nM (inactive)
- GI50 (COLO 205): 18600 nM (inactive)
- GI50 (M14): 71600 nM (inactive)
- GI50 (SR): 40400 nM (inactive)

Compound: CC1(C)[C@@H]2C[C@H]1c1cnc(-c3ccccn3)cc1C2CCCCC[C@@H]1c2cc(-c3ccccn3)ncc2[C@@H]2C[C@H]1C2(C)C (stereo partly specified)
- GI50 (CAKI-1): 628 nM (active)
- GI50 (UO-31): 853 nM (active)
- GI50 (K562): 473 nM (active)
- GI50 (SNB-19): 1780 nM (inactive)
- GI50 (SF-268): 687 nM (active)
- GI50 (HCC 2998): 7100 nM (inactive)
- GI50 (OVCAR-4): 384 nM (active)
- GI50 (DU-145): 1410 nM (inactive)
- GI50 (T47D): 1690 nM (inactive)
- GI50 (SNB-75): 740 nM (active)
- GI50 (MDA-N): 1360 nM (inactive)
- GI50 (SF-295): 871 nM (active)
- GI50 (Malme-3M): 3190 nM (inactive)
- GI50 (BT-549): 14100 nM (inactive)
- GI50 (UACC-257): 655 nM (active)
- GI50 (MOLT-4): 357 nM (active)
- GI50 (NCI-H522): 1710 nM (inactive)
- GI50 (NCI/ADR-RES): 25600 nM (inactive)
- GI50 (KM12): 1480 nM (inactive)
- GI50 (SK-MEL-28): 2290 nM (inactive)
- GI50 (SF-539): 199 nM (active)
- GI50 (A498): 3500 nM (inactive)
- GI50 (OVCAR-5): > 20300 nM (inactive)
- GI50 (EKVX): 2560 nM (inactive)
- GI50 (SK-MEL-5): 4180 nM (inactive)
- GI50 (MCF7): 809 nM (active)
- GI50 (SW-620): 830 nM (active)
- GI50 (HL-60): 426 nM (active)
- GI50 (MDA-MB-435): 1380 nM (inactive)
- GI50 (UACC-62): 946 nM (active)
- GI50 (RXF 393): 745 nM (active)
- GI50 (SK-MEL-2): 7100 nM (inactive)
- GI50 (OVCAR-3): 404 nM (active)
- GI50 (PC-3): 1320 nM (inactive)
- GI50 (CCRF-CEM): 502 nM (active)
- GI50 (MDA-MB-231): 8150 nM (inactive)
- GI50 (A549): 869 nM (active)
- GI50 (HOP-62): 1420 nM (inactive)
- GI50 (U-251): 897 nM (active)
- GI50 (ACHN): 1820 nM (inactive)
- GI50 (SN12C): 1530 nM (inactive)
- GI50 (LOX IMVI): 625 nM (active)
- GI50 (OVCAR-8): 1880 nM (inactive)
- GI50 (HCT-116): 489 nM (active)
- GI50 (NCI-H226): 1230 nM (inactive)
- GI50 (NCI-H460): 1990 nM (inactive)
- GI50 (NCI-H23): 1820 nM (inactive)
- GI50 (786-0): 493 nM (active)
- GI50 (TK-10): > 49200 nM (inactive)
- GI50 (RPMI-8226): 2510 nM (inactive)
- GI50 (HCT-15): 5900 nM
- GI50 (HT-29): 759 nM (active)
- GI50 (IGROV-1): 1630 nM (inactive)
- GI50 (COLO 205): 578 nM (active)
- GI50 (M14): 1610 nM (inactive)
- GI50 (SR): 653 nM (active)

Compound: COc1cc2c(cc1OCCCCCOc1cc3c(cc1OC)C(=O)N1CCC[C@H]1C(=O)N3)N=C[C@@H]1CCCN1C2=O
- GI50 (CAKI-1): 839 nM (active)
- GI50 (UO-31): 762 nM (active)
- GI50 (K562): 45.3 nM (active)
- GI50 (SNB-19): 192 nM (active)
- GI50 (HOP-92): 29.9 nM (active)
- GI50 (SF-268): 32.5 nM (active)
- GI50 (HCC 2998): < 10 nM (active)
- GI50 (OVCAR-4): 198 nM (active)
- GI50 (DU-145): 780 nM (active)
- GI50 (T47D): 33.6 nM (active)
- GI50 (SNB-75): < 10 nM (active)
- GI50 (SF-295): 268 nM (active)
- GI50 (SK-OV-3): 102 nM (active)
- GI50 (Malme-3M): 161 nM (active)
- GI50 (BT-549): 75 nM (active)
- GI50 (UACC-257): 237 nM (active)
- GI50 (Hs-578T): 258 nM (active)
- GI50 (MOLT-4): < 10 nM (active)
- GI50 (NCI-H522): 11.2 nM (active)
- GI50 (NCI/ADR-RES): 7800 nM (inactive)
- GI50 (KM12): 180 nM (active)
- GI50 (SK-MEL-28): 174 nM (active)
- GI50 (SF-539): 22.4 nM (active)
- GI50 (A498): 218 nM (active)
- GI50 (OVCAR-5): 957 nM (active)
- GI50 (EKVX): 279 nM (active)
- GI50 (SK-MEL-5): 100 nM (active)
- GI50 (MCF7): 22.9 nM (active)
- GI50 (SW-620): 87.5 nM (active)
- GI50 (HL-60): 81.7 nM (active)
- GI50 (MDA-MB-435): 124 nM (active)
- GI50 (UACC-62): 73.6 nM (active)
- GI50 (RXF 393): 175 nM (active)
- GI50 (SK-MEL-2): 80.9 nM (active)
- GI50 (OVCAR-3): 165 nM (active)
- GI50 (PC-3): 256 nM (active)
- GI50 (CCRF-CEM): < 10 nM (active)
- GI50 (MDA-MB-231): 140 nM (active)
- GI50 (A549): 716 nM (active)
- GI50 (HOP-62): 140 nM (active)
- GI50 (U-251): 22.5 nM (active)
- GI50 (ACHN): 206 nM (active)
- GI50 (SN12C): 71.1 nM (active)
- GI50 (LOX IMVI): 27.4 nM (active)
- GI50 (OVCAR-8): 225 nM (active)
- GI50 (HCT-116): 193 nM (active)
- GI50 (NCI-H226): 166 nM (active)
- GI50 (NCI-H460): 116 nM (active)
- GI50 (NCI-H23): 210 nM (active)
- GI50 (786-0): 76.2 nM (active)
- GI50 (TK-10): 111 nM (active)
- GI50 (RPMI-8226): 30.1 nM (active)
- GI50 (HCT-15): 3080 nM
- GI50 (HT-29): 116 nM (active)
- GI50 (IGROV-1): 132 nM (active)
- GI50 (COLO 205): 17.7 nM (active)
- GI50 (M14): 114 nM (active)
- GI50 (SR): < 10 nM (active)
